Assay [1] deals with T1, recombinant human BTK protein (Homo sapiens, UniProt Q06187).
T1 construct: purchased Carna Biosciences, Inc
Description: Measurement of BTK inhibitory activity (in vitro). The class given is biochemical. To be noted: ATP 45 μM, 40 minutes at 25° C. The source says:
Regarding the setting of the conditions for a method for measuring the inhibitory activity of a compound against BTK kinase activity in vitro, it is described in the consumable reagent supplies price list for LabChip (registered trademark) series of PerkinElmer, Inc. that FL-PEPTIDE 2 corresponds to a substrate peptide for the measurement of BTK kinase activity. Therefore, FL-PEPTIDE 2 was used as a substrate. The purified recombinant human BTK protein used in the test was purchased from Carna Biosciences, Inc.
Regarding the measurement of the inhibitory activity of the compounds, firstly, the compounds of the present invention were diluted stepwise with DMSO. Subsequently, BTK protein, a substrate peptide (final concentration was 1 μM), magnesium chloride (final concentration was 10 mM), ATP (final concentration was 45 μM), and a DMSO solution of the compounds of the present invention (final concentration of DMSO was 5%) were added to a buffer solution for kinase reaction (20 mM HEPES (pH 7.5), 2 mM dithiotheitol, 0.01% Triton X-100), and after the solution was incubated for 40 minutes at 25° C., a kinase reaction was carried out. The reaction was terminated by adding EDTA thereto so as to obtain a final concentration of 30 mM. Finally, a substrate peptide that was not phosphorylated (S) and a phosphorylated peptide (P) were separated and detected by microchannel capillary electrophoresis with a LabChip EZ Reader II (PerkinElmer, Inc.).

The next assay relates to EGFR/BTK. Description: BTK inhibition selectivity compared with EGFR kinase inhibitory activity (in vitro). The class given is biochemical, human. The following applies: ratio of IC50 values. On the procedure: Therefore, a biotinated peptide (biotin-[…]) was produced by referring to the amino acid sequence of the peptide. The purified recombinant human EGFR protein used in the test was purchased from Carna Biosciences, Inc.
Regarding the measurement of the inhibitory activity of the compounds, firstly, the compounds of the present invention were diluted stepwise with DMSO. […] The reaction was terminated by adding EDTA thereto so as to obtain a final concentration of 24 mM. Subsequently, a detection liquid containing Eu-labeled anti-phosphorylated tyrosine antibody PT66 (PerkinElmer, Inc.) and SureLight APC-SA (PerkinElmer, Inc.) was added thereto, and the system was left to stand for 2 hours or longer at room temperature.

The subject of the next assay is TNP-IgE mice. Nature of the assay: Mouse antigen-induced dermatitis model. The class given is in vivo. To be noted: for Ear swelling control ratio (%): 30 minutes before allergen, 2 hours after antigen. From the text:
Type I allergy models accompanied by a skin symptom (a dermatitis model) were produced, with TNP-IgE mice (CLEA Japan, Inc.). The mice are genetically modified BALB/c mice that constantly produce an IgE specific to hapten TNP (trinitrophenol) which is widely used as an allergen (antigen). It is possible to induce an allergic reaction in the mice, only by administering an allergen, without carrying out an immunization. […] An average value of thickening values of both ears was obtained as a value of an individual (provided that a previous value before the allergen application was 0 mm).
Ear swelling control ratio (%) was calculated by the following formula. Ear swelling control ratio (%)=(1−(Average value of ear thickening of compound administered group)/(Average value of ear thickening of vehicle administered group))×100

Another assay concerns A431 cells/TMD8 cells. Nature of the assay: Proliferation inhibitory activity against cell lines expressing BTK and EGFR, comparison of selectivity. Format: cell-based, human. The following applies: cells cultured three days with compound, CELLTITER GLO. The source says:
TMD8 cells, which are of a diffuse large B-cell lymphoma cell line expressing BTK, were suspended in RPMI1640 medium (Life Technologies Corp.) containing 10% fetal bovine serum. A431 cells, which are of an EGFR-overexpressing, highly activated human epidermoid carcinoma cell line, were suspended in DMEM, high glucose medium (Life Technologies Corp.) containing 10% fetal bovine serum. The cell suspensions were inoculated into each well of 384-well flat-bottomed microplates, and the cells were cultured for one day at 37° C. in an incubator containing 5% carbon dioxide gas. […] A DMSO solution of the test compounds was diluted with the medium used in the suspension of the each cell, and this was added to each of the wells of the cell culture plates such that the final concentration of DMSO would be 0.2%. The cells were further cultured for three days at 37° C. in an incubator containing 5% carbon dioxide gas. […] Proliferation inhibition ratio (%)=(C−T)/(C−C0)×100
T: Luminescence intensity of a well in which the test compound was added
C: Luminescence intensity of a well in which the test compound was not added
C0: Luminescence intensity of a well measured before the addition of the test compound
When a comparison is made between the cell proliferation inhibitory activity against A431 cells that depends on the EGFR proliferation signaling and the cell proliferation inhibitory activity against TMD8 cells that depends on the BTK proliferation signaling, the influence of the respective kinases at a cellular level is able to be evaluated. That is, when the “A431 cell proliferation inhibition ratio/TMD8 cell proliferation inhibition ratio” is calculated, it is contemplated that as the value of the ratio is larger, the selectivity to BTK over EGFR in the cells is higher.

Another assay relates to RBL-2H3 cells. Nature of the assay: Inhibitory activity against allergic reaction using RBL-2H3 cells (PGD2 production). Format: cell-based, rat. The following applies: Rattus norvegicus, RBL-2H3, RBL-2H3 cells, anti-DNP IgE / DNP-BSA; read-out: PGD2 production inhibitory concentration (IC50; (nM)). On the procedure: Rat basophilic leukemia cells, RBL-2H3, were suspended in MEM medium containing 10% FBS, and then the cells were inoculated in a culture plate, and cultured in a CO2 incubator (Sanyo Electric Biomedical Co., Ltd.) at 37° C. for 12 hours. After a culture supernatant was removed and the cells were washed, an anti-DNP-mouse IgE (Alpha Diagnostic Inc.) solution was added thereto, and the cells were cultured in the CO2 incubator for 1 hour. After a culture supernatant was removed and the cells were washed, an MEM medium was added thereto.
Further, a DNP-BSA (LSL, Inc.) solution was added thereto and the cells were cultured in the CO2 incubator for 15 minutes. A culture supernatant was collected and reacted, with PGD2-MOX EIA kit (Cayman Chemical Inc.) on the basis of the protocol attached thereto, and absorbance was measured by SUNRISE RAINBOW THERMO (TECAM Inc.).

Each structure is given as a SMILES string.

T1 sequence (Q06187 whole entry): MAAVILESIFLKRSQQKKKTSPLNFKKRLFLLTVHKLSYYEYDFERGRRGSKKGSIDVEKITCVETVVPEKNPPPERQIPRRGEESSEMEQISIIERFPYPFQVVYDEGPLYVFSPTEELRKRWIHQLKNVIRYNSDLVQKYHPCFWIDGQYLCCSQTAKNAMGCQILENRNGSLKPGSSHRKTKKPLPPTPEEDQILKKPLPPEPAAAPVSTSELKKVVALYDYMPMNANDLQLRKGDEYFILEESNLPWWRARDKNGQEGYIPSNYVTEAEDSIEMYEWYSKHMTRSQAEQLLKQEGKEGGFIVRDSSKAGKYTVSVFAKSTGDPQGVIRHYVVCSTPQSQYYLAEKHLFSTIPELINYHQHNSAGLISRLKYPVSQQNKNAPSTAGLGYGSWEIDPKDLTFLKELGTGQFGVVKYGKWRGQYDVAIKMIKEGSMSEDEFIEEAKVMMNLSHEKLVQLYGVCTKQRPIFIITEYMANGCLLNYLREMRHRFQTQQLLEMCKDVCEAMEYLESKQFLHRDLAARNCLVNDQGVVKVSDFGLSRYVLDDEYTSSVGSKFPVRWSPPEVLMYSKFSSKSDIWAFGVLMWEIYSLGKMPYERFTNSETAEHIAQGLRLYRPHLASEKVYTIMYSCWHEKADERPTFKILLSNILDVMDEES

Turning to `CN(C)C/C=C/C(=O)N1CC(n2cc(C(=O)Nc3nc4cc(Cl)ccc4o3)c3c(N)ncnc32)C1` [Example 47, (E)-4-amino-N-(5-chlorobenzo[d]oxazol-2-yl)-7-(1-(4-(dimethylamino)but-2-enoyl)azetidin-3-yl) 7H-pyrrolo[2,3-d]pyrimidine-5-carboxamide], in assay [1], the IC50 is 7.34 nM. The “EGFR inhibitory activity IC50 value (nM)/BTK inhibitory activity IC50 value (nM)” value (shortened to “EGFR inhibitory activity IC50 value”) with EGFR/BTK is 20.4.

For the compound `C=CC(=O)N1CCC[C@@H](n2nc(C(=O)Nc3nc4cc(CCOC)ccc4o3)c3c(N)ncnc32)C1` [Example 8, (R)-1-(1-acryloylpiperidin-3-yl)-4-amino-N-(5-(2-methoxyethyl)benzo[d]oxazol-2-yl)-1H-pyrazolo[3,4-d]pyrimidine-3-carboxamide], in assay [1], the IC50 stood at 1.27 nM. In addition, the “EGFR inhibitory activity IC50 value” value in the assay on EGFR/BTK is recorded as 22.9.

`C=CC(=O)N1CCC[C@@H](n2nc(C(=O)Nc3nc4cc(C#N)ccc4o3)c3c(N)ncnc32)C1` [Example 6, (R)-1-(1-acryloylpiperidin-3-yl)-4-amino-N-(5-cyanobenzo[d]oxazol-2-yl)-1H-pyrazolo[3,4-d]pyrimidine-3-carboxamide]: the IC50 in assay [1] is 0.738 nM. In the assay on TNP-IgE mice (3 mg/kg oral), the “Ear swelling control ratio (%)” value is listed as 45%. Also, the “A431 cell proliferation inhibition ratio/TMD8 cell proliferation inhibition ratio” value with A431 cells/TMD8 cells worked out at 2786.0.

For `CN(C)C/C=C/C(=O)N1CCC[C@@H](n2nc(C(=O)Nc3nc4cc(-c5cccs5)ccc4o3)c3c(N)ncnc32)C1` [Example 21, (R,E)-4-amino-N-(5-(thiophen-2-yl)benzo[d]oxazol-2-yl)-1-(1-(4-(dimethylamino)but-2-enoyl)piperidin-3-yl)-1H-pyrazolo[3,4-d]pyrimidine-3-carboxamide], in assay [1], the IC50 was found to be 0.777 nM. Moreover, the “EGFR inhibitory activity IC50 value” value with EGFR/BTK stood at 147.4.

As to `C=CC(=O)N1CCC[C@@H](n2nc(C(=O)Nc3nc4cc(OC)ccc4o3)c3c(N)ncnc32)C1` [Example 7, (R)-1-(1-acryloylpiperidin-3-yl)-4-amino-N-(5-methoxybenzo[d]oxazol-2-yl)-1H-pyrazolo[3,4-d]pyrimidine-3-carboxamide], the IC50 in assay [1] was determined as 0.457 nM.

Regarding `C=CC(=O)N1CC[C@@H](n2nc(C(=O)Nc3nc4ccccc4o3)c3c(N)ncnc32)C1` [Example 27, (R)-1-(1-acryloylpyrrolidin-3-yl)-4-amino-N-(benzo[d]oxazol-2-yl)-1H-pyrazolo[3,4-d]pyrimidine-3-carboxamide], in assay [1], the IC50 came to 1.43 nM.

As for `C=C(C)C(=O)N1CCC[C@@H](n2nc(C(=O)Nc3nc4cc(F)ccc4o3)c3c(N)ncnc32)C1` [Example 11, (R)-4-amino-N-(5-fluorobenzo[d]oxazol-2-yl)-1-(1-methacryloylpiperidin-3-yl)-1H-pyrazolo[3,4-d]pyrimidine-3-carboxamide], in assay [1], the IC50 came to 2.14 nM. For the same compound, in the assay with EGFR/BTK, the “EGFR inhibitory activity IC50 value” value was 1294.6.

Consider `C=CC(=O)N1CC(n2nc(C(=O)Nc3nc4cc(Cl)ccc4o3)c3c(N)ncnc32)C1` [Example 45, 1-(1-acryloylazetidin-3-yl)-4-amino-N-(5-chlorobenzo[d]oxazol-2-yl)-1H-pyrazolo[3,4-d]pyrimidine-3-carboxamide], for which, in assay [1], the IC50 worked out at 1.25 nM.

As to `C=CC(=O)N1CCC[C@@H](n2nc(C(=O)Nc3nc4cc(Cl)ccc4o3)c3c(N)ncnc32)C1` [Example 1, (R)-1-(1-acryloylpiperidin-3-yl)-4-amino-N-(5-chlorobenzo[d]oxazol-2-yl)-1H-pyrazolo[3,4-d]pyrimidine-3-carboxamide], the IC50 in the assay on RBL-2H3 cells amounted to 37 nM. For the same compound, the “Ear swelling control ratio (%)” value came to 66% in the assay on TNP-IgE mice (1 mg/kg oral) and 81% with TNP-IgE mice (3 mg/kg oral). Besides, the “ear swellings induced by the allergen application” value in the assay on TNP-IgE mice (from low dose, compared with Reference compound 1) is listed as “suppressed equivalently or strongly ear swellings”.

The values are drawn from patent publication US9782412B2, “Preventive and/or therapeutic agent of immune disease” (TAIHO PHARMACEUTICAL CO., LTD., priority 2015, dated 2017).
